Results reported in patent US5037828A, “Piperazine derivatives, uses thereof and pharmaceutical compositions containing them” (Boehringer Mannheim GmbH, priority 1989, dated 1991).

How the values were obtained:
[1] = system: conscious spontaneously hypertensive rats; assay: Blood pressure lowering activity in conscious spontaneously hypertensive rats; assay type: in vivo, rat; conditions: 10 mg/kg i.v.; 15 min after administration; mean arterial blood pressure; mean of 4-6 experiments
Description: 3. The blood pressure lowering activity of the test compounds was investigated in conscious spontaneously hypertensive rats. The blood pressure response to the test compounds was evaluated by means of continuous monitoring of the mean arterial blood pressure via an implanted catheter, electromagnetic transducer and a direct recording system. The test compounds were injected at a dose of 10 mg/kg i.v. and the blood pressure response was determined 15 min after administration.

[2] = system: anaphylactoid reactions in rats induced by dextran; conditions: in words, U.S. Pat. No. 3,997,666; cited from earlier work
[3] = in words; U.S. Pat. No. 3,997,666; cited from earlier work
α1 -receptor = assay: Receptor binding study, displacement of tritium-labeled prazosin in brain membrane homogenates; conditions: mean of 4-6 experiments, read-out: α1 -receptor affinity IC50
Description: 1. The affinities of the compounds were studied in receptor binding studies using prazosin as tritium-labeled ligand. The investigations were performed in brain membrane homogenates. The affinity was expressed as IC50 -value (the IC50 -value is the concentration in nmol/l which displaces 50% of the labeled ligand). Low values indicate a high affinity.

[4] = system: isolated rat aortic strips; assay: In vitro vasorelaxation of isolated rat aortic strips precontracted with noradrenaline; conditions: 25 min, 3 × 10^-6 M, noradrenaline 10^-5 M precontraction, end of 25 min incubation, mean of 4-6 experiments
Description: 2. In vitro investigations were performed on isolated rat aortic strips precontracted with noradrenaline (10^-5 M). The test compounds were added to the bath solution at concentrations of 3×10^-6 M in order to test for vasorelaxation. The relaxation was evaluated at the end of an incubation period of 25 min. High values indicate a strong vasorelaxing effect.

## COc1ccccc1N1CCN(CC(O)COc2cccc3ccccc23)CC1 (centres unmarked) [naftopidil, 1(2-methoxyphenyl)-4-/3-(naphth-1-yloxy)-2-hydroxypropyl/-piperazine]
[1]
  blood pressure decrease: 31 mmHg
[2]
  inhibition of anaphylactoid reactions induced by dextran: inhibits anaphylactoid reactions in rats induced by dextran
[3]
  antihypertensive properties: possesses antihypertensive properties
α1 -receptor
  IC50: 235 nM
[4]
  inhibition at 3 µM: 53%

## COc1ccccc1N1CCN(CC(O)COc2ccc(O)c3ccccc23)CC1 (centres unmarked) [Example 3, 1-(2-Methoxyphenyl)-4-[3-(4-hydroxynaphth-1-yloxy)-2-hydroxypropyl]-piperazine]
[1]
  blood pressure decrease: 48 mmHg
α1 -receptor
  IC50: 52.7 nM
[4]
  inhibition at 3 µM: 85%
